This note sets out measurements from patent US8158657B2, “Heterocycles substituted pyridine derivatives and antifungal agent containing thereof” (Eisai R&D Management Co., Ltd., priority 2005, dated 2012).

Test [1] concerns C. albicans CAF2-1 strain. Nature of the test: Anti-Candida activity, MIC measurement. Particulars: CAF21STRAIN, C. albicans CAF2-1, RPMI1640, 42-48 hours at 35° C., visual inspection, read-out: Anti-Candida Activity (minimum inhibitory concentration, MIC). In kind it is cell-based. In a few lines:
(§1)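 C. albicans CAF2-1 was grown 48 h at 30° C. in SDB and diluted in RPMI1640 to 1.2×10^3 cells/mL. Frozen A. fumigatus Tsukuba was diluted to 4.5×10^3 cells/mL. Compounds, two-fold serially diluted in DMSO from 2.5 mg/mL, were cultured aerobically with fungi for 42-48 h at 35° C.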

The test system of test [2] is A. fumigatus Tsukuba strain. Nature of the test: Anti-Aspergillus activity, MIC measurement. Conditions: RPMI1640, 42-48 hours at 35° C., visual inspection, read-out: Anti-Aspergillus Activity (minimum inhibitory concentration, MIC). In kind it is cell-based. In a few lines:
as §1

In test [3] the test system is C. albicans E81022 strain. The test can be described thus: Experimental systemic candidal infection model in mice. The class given is in vivo. Particulars: peroral, 3 times every 4 hours, female ICR mice, observed until 14 days after infection. How it is done: A standing culture of C. albicans E81022 strain was carried out for 48 hours at 30° C. in sabouraud dextrose agar medium (SDA), the recovered fungal cells were suspended in sterilized physiological saline. By counting the fungal number on cytometry plate, the suspension was diluted to 2×10^7 cells/mL with sterilized physiological saline to serve fungal inoculum.
The fungal inoculum was used in the amounts of 0.2 mL to inoculate 4.5 to 5.5 week-old female ICR mice in the tail vein (4×10^6 cells/mouse).
From 0.5 to 1 hour after fungal inoculation, 0.2 mL of agent solution (dissolved or suspended in sterilized physiological saline containing 6.5% dimethyl sulfoxide and 3.5% Tween 80) was administered into the stomach using a peroral probe, 3 times every 4 hours. The agent concentration was 2.5 mg/kg or 10 mg/kg, and the number of animals in one group was 5 animals.
The protective effect was determined by observing life/death until 14 days after infection and calculating the mean survival days.

The structures appear in SMILES notation. Converted amounts (≈) assume the structure as drawn.

Consider `Nc1ncccc1-c1cc(Cc2ccc(OCc3ccc(F)cc3)nc2)no1` [Example 58, 3-(3-(6-(4-Fluoro-benzyloxy)-pyridin-3-ylmethyl)-isoxazol-5-yl)-pyridin-2-ylamine], for which the MIC was 0.78 µg/mL (≈ 2.07 µM) in test [1] and 0.1 µg/mL (≈ 0.266 µM) in test [2]. Moreover, the entries for the “Mean Survival Days” value in test [3] (2.5 mg/kg) and in test [3] (10 mg/kg) were 3.8 days and 12.0 days, respectively.

Take `Nc1ncccc1-c1cc(Cc2ccc(Cc3ccc(Cl)o3)cc2)no1` [Example 62, 3-(3-(4-(5-Chloro-furan-2-ylmethyl)-benzyl)-isoxazol-5-yl)-pyridin-2-ylamine]: the MIC in test [1] and in test [2] was 0.2 µg/mL (≈ 0.547 µM) each time. In addition, in test [3] (2.5 mg/kg), the “Mean Survival Days” value came out at 10.2 days.

Consider `Nc1ncccc1-c1cc(Cc2ccc(CNc3ccccc3)cc2)no1` [Example 73, 3-(3-(4-Phenylaminomethyl-benzyl)-isoxazol-5-yl)-pyridin-2-ylamine], for which the MIC in test [1] was 0.1 µg/mL (≈ 0.281 µM); in test [2], 0.39 µg/mL (≈ 1.09 µM). For the same compound, the “Mean Survival Days” value stood at 4.4 days in test [3] (2.5 mg/kg) and 12.6 days in test [3] (10 mg/kg).

`Cc1ccnc(OCc2ccc(Cc3cc(-c4ccc(N)nc4N)on3)cc2)c1` [Example 102, 3-(3-(4-(4-Methyl-pyridin-2-yloxymethyl)-benzyl)-isoxazol-5-yl)-pyridin-2,6-diamine]: the results for the MIC in test [1] and in test [2] were 0.2 µg/mL (≈ 0.516 µM) and 0.39 µg/mL (≈ 1.01 µM), respectively. For the same compound, the “Mean Survival Days” value in test [3] (2.5 mg/kg) was found to be 13.2 days; in test [3] (10 mg/kg), 13.0 days.

With `Nc1ccc(-c2cc(Cc3ccc(OCc4cccc(F)n4)cc3)no2)c(N)n1` [Example 104, 3-(3-(4-(6-Fluoro-pyridin-2-ylmethoxy)-benzyl)-isoxazol-5-yl)-pyridin-2,6-diamine], the MIC in test [1] and in test [2] was 0.78 µg/mL (≈ 1.99 µM) in each case. Further, the “Mean Survival Days” value in test [3] (2.5 mg/kg) came to 8.2 days; in test [3] (10 mg/kg) it was 13.2 days.

As to `Cc1ccc(Cc2ccc(Cc3cc(-c4ccc(N)nc4N)on3)cc2)o1` [Example 105, 3-(3-(4-(5-Methyl-furan-2-ylmethyl)-benzyl)-isoxazol-5-yl)-pyridin-2,6-diamine], the MIC in test [1] and in test [2] was 0.2 µg/mL (≈ 0.555 µM) each time. The “Mean Survival Days” value in test [3] (2.5 mg/kg) was 5.4 days; in test [3] (10 mg/kg), 12.8 days.

As to `Nc1ccc(-c2cc(Cc3ccc(OCc4cc(Cl)ccn4)cc3)no2)c(N)n1` [Example 109, 3-(3-(4-(4-Chloro-pyridin-2-ylmethoxy)-benzyl)-isoxazol-5-yl)-pyridin-2,6-diamine], the figures for the MIC in test [1] and in test [2] were 0.39 µg/mL (≈ 0.956 µM) and 0.78 µg/mL (≈ 1.91 µM), respectively. Further, the “Mean Survival Days” value in test [3] (2.5 mg/kg) turned out to be 11.0 days; in test [3] (10 mg/kg) it was 11.8 days.

`Nc1ccc(-c2cc(Cc3ccc(OCc4cccc(Cl)n4)cc3)no2)c(N)n1` [Example 110, 3-(3-(4-(6-Chloro-pyridin-2-ylmethoxy)-benzyl)-isoxazol-5-yl)-pyridin-2,6-diamine]: the MIC in test [1] and in test [2] was 0.78 µg/mL (≈ 1.91 µM) each time. Also, the “Mean Survival Days” value in test [3] (2.5 mg/kg) was 12.0 days.

Turning to `Nc1ccc(-c2cc(Cc3ccc(COc4ccccc4)nc3)no2)c(N)n1` [Example 111, 3-(3-(6-Phenoxymethyl-pyridin-3-ylmethyl)-isoxazol-5-yl)-pyridin-2,6-diamine], the figures for the MIC in test [1] and in test [2] were 0.39 µg/mL (≈ 1.04 µM) and 0.78 µg/mL (≈ 2.09 µM), respectively. Also, the “Mean Survival Days” value in test [3] (2.5 mg/kg) amounted to 13.6 days.

With `Nc1ccc(-c2cc(Cc3ccc(OCc4ccc(F)cn4)cc3)no2)c(N)n1` [Example 112, 3-(3-(4-(5-Fluoro-pyridin-2-ylmethoxy)-benzyl)-isoxazol-5-yl)-pyridin-2,6-diamine], the figures for the MIC in test [1] and in test [2] were 0.78 µg/mL (≈ 1.99 µM) and 0.39 µg/mL (≈ 0.996 µM), respectively. The “Mean Survival Days” value in test [3] (10 mg/kg) was 12.2 days.

As to `Nc1ccc(-c2cc(Cc3ccn(Cc4ccccc4)c3)no2)c(N)n1` [Example 115, 3-(3-(1-Benzyl-1H-pyrrol-3-ylmethyl)-isoxazol-5-yl)-pyridin-2,6-diamine], the MIC was 0.1 µg/mL (≈ 0.29 µM) in test [1] and 0.2 µg/mL (≈ 0.579 µM) in test [2]. The “Mean Survival Days” value in test [3] (2.5 mg/kg) came to 10.8 days; in test [3] (10 mg/kg), 13.2 days.

With `Nc1ccc(-c2cc(Cc3ccc(OCc4ccc(F)cc4)nc3)no2)c(N)n1` [Example 116, 3-(3-(6-(4-Fluoro-benzyloxy)-pyridin-3-ylmethyl)-isoxazol-5-yl)-pyridin-2,6-diamine], the figures for the MIC in test [1] and in test [2] were 0.78 µg/mL (≈ 1.99 µM) and 0.2 µg/mL (≈ 0.511 µM), respectively. In addition, the “Mean Survival Days” value in test [3] (2.5 mg/kg) came out at 4.6 days; in test [3] (10 mg/kg), 12.6 days.

In the case of `Nc1ccc(-c2cc(Cc3ccc(Cc4ccc(Cl)o4)cc3)no2)c(N)n1` [Example 120, 3-(3-(4-(5-Chloro-furan-2-ylmethyl)-benzyl)-isoxazol-5-yl)-pyridin-2,6-diamine], the MIC in test [1] came out at 0.39 µg/mL (≈ 1.02 µM); in test [2] it was 0.2 µg/mL (≈ 0.525 µM). Moreover, the “Mean Survival Days” value in test [3] (2.5 mg/kg) was determined as 3.2 days; in test [3] (10 mg/kg), 13.4 days.

Regarding `Nc1ccc(-c2cc(Cc3ccc(Oc4cccc(F)c4)nc3)no2)c(N)n1` [Example 131, 3-(3-(6-(3-Fluoro-phenoxy)-pyridin-3-ylmethyl)-isoxazol-5-yl)-pyridin-2,6-diamine], the MIC in test [1] and in test [2] was 0.2 µg/mL (≈ 0.53 µM) each time. Moreover, the “Mean Survival Days” value in test [3] (2.5 mg/kg) came to 12.6 days; in test [3] (10 mg/kg), 12.8 days.

As for `Nc1ccc(-c2cc(Cc3ccc(CNc4ccccc4)cc3)no2)c(N)n1` [Example 133, 3-(3-(4-Phenylaminomethyl-benzyl)-isoxazol-5-yl)-pyridin-2,6-diamine], the MIC in test [1] turned out to be 0.2 µg/mL (≈ 0.538 µM); in test [2], 0.39 µg/mL (≈ 1.05 µM). Further, the “Mean Survival Days” value in test [3] (2.5 mg/kg) was 7.0 days; in test [3] (10 mg/kg), 13.4 days.

Regarding `Nc1ccc(-c2cc(Cc3ccc(Oc4ccc(F)cc4)nc3)no2)c(N)n1` [Example 135, 3-(3-(6-(4-Fluoro-phenoxy)-pyridin-3-ylmethyl)-isoxazol-5-yl)-pyridin-2,6-diamine], the results for the MIC in test [1] and in test [2] were 0.78 µg/mL (≈ 2.07 µM) and 0.39 µg/mL (≈ 1.03 µM), respectively. Also, the “Mean Survival Days” value in test [3] (2.5 mg/kg) came to 11.0 days; in test [3] (10 mg/kg), 13.4 days.

On to `Nc1ccc(-c2cc(Cc3ccc(OCc4nccs4)cc3)no2)c(N)n1` [Example 151, 3-(3-(4-(Thiazol-2-ylmethoxy)-benzyl)-isoxazol-5-yl)-pyridin-2,6-diamine], for which the MIC in test [1] amounted to 0.78 µg/mL (≈ 2.06 µM); in test [2] it was 0.39 µg/mL (≈ 1.03 µM). Besides, the “Mean Survival Days” value in test [3] (2.5 mg/kg) is 7.0 days; in test [3] (10 mg/kg), 14.0 days.

On to `Nc1ccc(-c2cc(Cc3ccc(Oc4ccc(F)cc4)s3)no2)c(N)n1` [Example 155], for which the MIC in test [1] and in test [2] was 0.1 µg/mL (≈ 0.261 µM) in each case. In addition, the “Mean Survival Days” value in test [3] (2.5 mg/kg) came to 10.4 days; in test [3] (10 mg/kg) it was 13.0 days.

`COCc1ccc(-c2cc(Cc3ccc(OCc4ccccn4)cc3)no2)c(N)n1` [Example 166, 6-Methoxymethyl-3-(3-(4-(pyridin-2-ylmethoxy)-benzyl)-isoxazol-5-yl)pyridin-2-ylamine]: the MIC came out at 0.39 µg/mL (≈ 0.969 µM) in test [1] and 0.78 µg/mL (≈ 1.94 µM) in test [2]. The “Mean Survival Days” value in test [3] (2.5 mg/kg) amounted to 3.4 days; in test [3] (10 mg/kg), 12.4 days.

As for `Cc1ccc(-c2cc(Cc3ccc(COc4ccccn4)cc3)no2)c(N)n1` [Example 171], the MIC amounted to 0.2 µg/mL (≈ 0.537 µM) in test [1] and 0.39 µg/mL (≈ 1.05 µM) in test [2]. Also, the figures for the “Mean Survival Days” value in test [3] (2.5 mg/kg) and in test [3] (10 mg/kg) were 8.4 days and 12.6 days, respectively.

On to `Nc1ccc(-c2cc(Cc3ccc(COc4ccccn4)cc3)no2)cn1` [Example 176], for which the MIC in test [1] and in test [2] was 0.2 µg/mL (≈ 0.558 µM) in each case. Also, the “Mean Survival Days” value turned out to be 12.6 days in test [3] (2.5 mg/kg) and 13.4 days in test [3] (10 mg/kg).

For the compound `Nc1ncccc1-c1cnn(Cc2ccc(OCc3ccccn3)cc2)c1` [Example 192, 3-(1-(4-(Pyridin-2-ylmethoxy)-benzyl)-1H-pyrazol-4-yl)-pyridin-2-ylamine], the MIC in test [1] came out at 0.39 µg/mL (≈ 1.09 µM); in test [2], 1.56 µg/mL (≈ 4.36 µM). The “Mean Survival Days” value was found to be 3.2 days in test [3] (2.5 mg/kg) and 9.4 days in test [3] (10 mg/kg).

Turning to `c1ccc(OCc2ccc(Cc3cc(-c4cccnc4)on3)cc2)nc1` [Example 202, 3-(3-(4-(Pyridin-2-yloxymethyl)-benzyl)-isoxazol-5-yl)-pyridine], the MIC worked out at 0.05 µg/mL (≈ 0.146 µM) in test [1] and 0.2 µg/mL (≈ 0.582 µM) in test [2]. The results for the “Mean Survival Days” value in test [3] (2.5 mg/kg) and in test [3] (10 mg/kg) were 2.4 days and 10.0 days, respectively.
